This passage reports CC50, IC50 and EC50 results from patent US11834450B2, “Compounds having ((3-nitrophenyl)sulfonyl)acetamide as BCL-2 inhibitors” (Eil Therapeutics, Inc., priority 2021, dated 2023).

What is called CC50 is the concentration giving 50% cytotoxicity. In general, IC50 refers to the concentration needed to halve the response being measured.

For data set [1], the system named is MOLT-4 cells. Kind of data set: Cell viability assay MOLT-4 (CellTiter-Glo). It is filed as cell-based. To be noted: Homo sapiens, 72 h; MOLT-4 cells, 3 days, CellTiter-Glo; read-out: MOLT-4 (CC50 code). The gist of the method:
(§1)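 Cells were seeded at 2000/well (HEK293, in DMEM, pre-incubated a day) or 4000/well (other lines, in RPMI-1640). Serially diluted compound was added and plates incubated 3 days at 37 °C, with viability read by CellTiter-Glo luminescence.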
Background: ATP-based viability assays read luminescence as a measure of living cells.

The nature of data set [2]: Cell viability assay HEK293 (CellTiter-Glo). It is filed as cell-based. The note with it: human, HEK293 cells, read-out: HEK293 (CC50 code). The gist of the method:
as §1

For data set [3], the target named is T1, BCL-XL (Homo sapiens, UniProt Q07817).
T1 construct: purchased BPS Bioscience #50223
The data set is described as follows: BCL-XL TR-FRET Assay (primary PPI inhibition). To be noted: 60 min incubation; read-out: BCLxL (IC50 code, BCL-XL TR-FRET). It is filed as binding. The gist of the method:
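TR-FRET readout (ex 340 nm; em 620/665 nm; 60 μs delay, 500 μs integration) after a 60 min incubation. Mix: compound, 10.5 ng BCL-XL, BCL-XL peptide ligand at 1:80, plus anti-His Tb donor and dye acceptor each at 1:100.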
For orientation: TR-FRET usually uses a lanthanide donor and a delayed reading to cut background.

The target in data set [4] is T2, BCL-2 (Homo sapiens, UniProt P10415).
T2 construct: purchased BPS Bioscience #50222
The data set is described as follows: BCL-2 TR-FRET Assay (primary PPI inhibition). It is filed as binding. The note with it: 60 min incubation; read-out: BCL2 (IC50 code, BCL-2 TR-FRET).

Data set [5] has as its system caspase-3 and -7 activities in RS4-11 cells. The data set is described as follows: Cas-3/7 activation (Caspase-Glo 3/7) in RS4-11 cells. It is filed as cell-based. To be noted: Homo sapiens, 3.5 h at 37° C. and 30 min at r.t., read-out: Cas-3/7 (EC50 code). The gist of the method: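 RS4-11 cells were exposed to graded compound concentrations for 3.5 h at 37° C/5% CO2, then 30 min at room temperature. Caspase-3/7 activity was measured by luminescence after 30 min with a DEVD luminogenic substrate reagent.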

The subject of data set [6] is RS4-11 cells. The data set is described as follows: Cell viability assay RS4-11 (CellTiter-Glo). It is filed as cell-based. The note with it: Homo sapiens, 72 h; RS4-11 cells, 3 days, CellTiter-Glo; read-out: RS4-11 (CC50 code). The gist of the method:
as §1

T2 sequence (P10415 whole entry): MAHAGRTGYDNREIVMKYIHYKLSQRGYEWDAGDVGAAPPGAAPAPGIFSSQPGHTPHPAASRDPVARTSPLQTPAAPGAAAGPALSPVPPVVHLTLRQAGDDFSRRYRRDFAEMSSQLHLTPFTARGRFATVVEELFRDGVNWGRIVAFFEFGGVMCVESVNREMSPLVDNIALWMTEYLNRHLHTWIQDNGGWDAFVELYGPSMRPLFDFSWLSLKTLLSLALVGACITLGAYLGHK
T1 sequence (Q07817 whole entry): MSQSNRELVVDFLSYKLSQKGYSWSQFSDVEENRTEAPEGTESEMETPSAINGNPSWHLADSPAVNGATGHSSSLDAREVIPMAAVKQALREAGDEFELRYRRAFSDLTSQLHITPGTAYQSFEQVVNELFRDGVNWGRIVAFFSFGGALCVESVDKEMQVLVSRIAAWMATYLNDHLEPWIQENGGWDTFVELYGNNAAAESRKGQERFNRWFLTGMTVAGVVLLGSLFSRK

For the molecule `CC1=CC[C@@H](CN2CCN(c3ccc(C(=O)NS(=O)(=O)c4ccc(NCC5CCOCC5)c([N+](=O)[O-])c4)c(Oc4cnc5[nH]ccc5c4)c3)CC2)[C@H](c2ccc(Cl)cc2)C1` [Compound 54, 4-[4-[[(1R,6R)-6-(4-chlorophenyl)-4-methyl-cyclohex-3-en-1-yl]methyl]piperazin-1-yl]-N-[3-nitro-4-(tetrahydropyran-4-ylmethylamino)phenyl]sulfonyl-2-(1H-pyrrolo[2,3-b]pyridin-5-yloxy)benzamide], the CC50 in data set [1] was 2 to 10 µM; in data set [6] it was 0.1 to 0.2 µM. Further, the CC50 at 3 days in data set [2] lay within 10 to 25 µM. Also, the IC50 was in the range of 2 to 4 µM in data set [3] and 0.01 to 0.05 µM in data set [4]. In addition, in data set [5], the EC50 is 0.1 to 0.25 µM.
Turning to `CC1=CC[C@@H]2C[C@H]1[C@H](c1ccc(Cl)cc1)N(CC1CCN(c3ccc(C(=O)NS(=O)(=O)c4ccc(NCC5CCOCC5)c([N+](=O)[O-])c4)c(Oc4cnc5[nH]ccc5c4)c3)CC1)C2` [Compound 55, 4-[4-[[(1R,4R, 5R)-4-(4-chlorophenyl)-6-methyl-3-azabicyclo[3.3.1]non-6-en-3-yl]methyl]-1-piperidyl]-N-[3-nitro-4-(tetrahydropyran-4-ylmethylamino)phenyl]sulfonyl-2-(1H-pyrrolo[2,3-b]pyridin-5-yloxy)benzamide], the CC50 is 2 to 10 µM in data set [1] and > 0.2 µM in data set [6]. For the same molecule, the CC50 at 3 days in data set [2] was > 25 µM. In addition, the IC50 is > 4 µM in data set [3] and > 0.05 µM in data set [4]. Besides, the EC50 in data set [5] is > 0.25 µM.
Take `O=C(NS(=O)(=O)c1ccc(NCC2CCOCC2)c([N+](=O)[O-])c1)c1ccc(N2CCC(CN3C(=O)C4(CCNCC4)C3c3ccc(Cl)cc3)CC2)cc1Oc1cnc2[nH]ccc2c1` (stereo not drawn) [Compound 56, 4-[4-[[1-(4-chlorophenyl)-3-oxo-2,7-diazaspiro[3.5]nonan-2-yl]methyl]-1-piperidyl]-N-[3-nitro-4-(tetrahydropyran-4-ylmethylamino)phenyl]sulfonyl-2-(1H-pyrrolo[2,3-b]pyridin-5-yloxy)benzamide]: the results for the CC50 in data set [1] and in data set [6] were > 10 µM and > 0.2 µM, respectively. In addition, in data set [2], the CC50 at 3 days was > 25 µM. Besides, the 50% inhibitory concentration (IC50) in data set [3] lay within 2 to 4 µM; in data set [4] it was 0.01 to 0.05 µM. In addition, the EC50 in data set [5] is > 0.25 µM.
As for `CC(C)C(=O)N1Cc2cc(Cl)ccc2C[C@H]1CN1CCN(c2ccc(C(=O)NS(=O)(=O)c3ccc(NCC4CCOCC4)c([N+](=O)[O-])c3)c(Oc3cnc4[nH]ccc4c3)c2)CC1` [Compound 57, 4-[4-[[(3S)-7-chloro-2-(2-methylpropanoyl)-3,4-dihydro-1H-isoquinolin-3-yl]methyl]piperazin-1-yl]-N-[3-nitro-4-(tetrahydropyran-4-ylmethylamino)phenyl]sulfonyl-2-(1H-pyrrolo[2,3-b]pyridin-5-yloxy)benzamide], the CC50 in data set [1] was 2 to 10 µM; in data set [6], > 0.2 µM. Also, in data set [2], the CC50 at 3 days lay within 10 to 25 µM. Also, the IC50 was > 4 µM in data set [3] and > 0.05 µM in data set [4]. In addition, the EC50 in data set [5] is > 0.25 µM.
As to `CC(C)C(=O)N1C[C@@H](CN2CCN(c3ccc(C(=O)NS(=O)(=O)c4ccc(NCC5CCOCC5)c([N+](=O)[O-])c4)c(Oc4cnc5[nH]ccc5c4)c3)CC2)[C@H](c2ccc(Cl)cc2)C1` [Compound 58, 4-[4-[[(3R,4R)-4-(4-chlorophenyl)-1-(2-methylpropanoyl)pyrrolidin-3-yl]methyl]piperazin-1-yl]-N-[3-nitro-4-(tetrahydropyran-4-ylmethylamino)phenyl]sulfonyl-2-(1H-pyrrolo[2,3-b]pyridin-5-yloxy)benzamide], the CC50 in data set [1] is 2 to 10 µM; in data set [6], > 0.2 µM. In data set [2], the CC50 at 3 days was > 25 µM. Moreover, the IC50 in data set [3] is > 4 µM; in data set [4] it was 0.01 to 0.05 µM. For the same molecule, the EC50 in data set [5] was > 0.25 µM.
As to `O=C(NS(=O)(=O)c1ccc(NCC2CCOCC2)c([N+](=O)[O-])c1)c1ccc(N2CCN(C[C@H]3Cc4ccccc4CN3C(=O)c3ccsc3)CC2)cc1Oc1cnc2[nH]ccc2c1` [Compound 59, N-[3-nitro-4-(tetrahydropyran-4-ylmethylamino)phenyl]sulfonyl-2-(1H-pyrrolo[2,3-b]pyridin-5-yloxy)-4-[4-[[(3R)-2-(thiophene-3-carbonyl)-3,4-dihydro-1H-isoquinolin-3-yl]methyl]piperazin-1-yl]benzamide], the CC50 in data set [1] is 2 to 10 µM; in data set [6], > 0.2 µM. Also, the CC50 at 3 days in data set [2] is > 25 µM. The IC50 is 2 to 4 µM in data set [3] and 0.01 to 0.05 µM in data set [4]. Further, the EC50 in data set [5] was > 0.25 µM.
For the molecule `COCCNc1ccc(S(=O)(=O)NC(=O)c2ccc(N3CCC(CN4CCCCC4c4ccc(Cl)cc4)CC3)cc2Oc2cnc3[nH]ccc3c2)cc1[N+](=O)[O-]` (stereo not drawn) [Compound 61, 4-[4-[[2-(4-chlorophenyl)-1-piperidyl]methyl]-1-piperidyl]-N-[4-(2-methoxyethylamino)-3-nitro-phenyl]sulfonyl-2-(1H-pyrrolo[2,3-b]pyridin-5-yloxy)benzamide], the 50% cytotoxic concentration (CC50) in data set [1] was in the range of 2 to 10 µM; in data set [6] it was 0.1 to 0.2 µM. For the same molecule, the CC50 at 3 days in data set [2] is > 25 µM. In addition, the IC50 is ≤ 2 µM in data set [3] and > 0.05 µM in data set [4]. The EC50 in data set [5] was > 0.25 µM.
Regarding `O=C(NS(=O)(=O)c1ccc(NC2CCOC2)c([N+](=O)[O-])c1)c1ccc(N2CCC(CN3CCCCC3c3ccc(Cl)cc3)CC2)cc1Oc1cnc2[nH]ccc2c1` (stereo not drawn) [Compound 63, 4-[4-[[2-(4-chlorophenyl)-1-piperidyl]methyl]-1-piperidyl]-N-[3-nitro-4-(tetrahydrofuran-3-ylamino)phenyl]sulfonyl-2-(1H-pyrrolo[2,3-b]pyridin-5-yloxy)benzamide], the CC50 in data set [1] was 2 to 10 µM; in data set [6] it was > 0.2 µM. Also, the half-maximal cytotoxic concentration (CC50) at 3 days in data set [2] was > 25 µM. Besides, the IC50 was 2 to 4 µM in data set [3] and > 0.05 µM in data set [4]. In addition, in data set [5], the EC50 is > 0.25 µM.
As to `CN1C(=O)CC[C@H](CN2CCN(c3ccc(C(=O)NS(=O)(=O)c4ccc(NCC5CCOCC5)c([N+](=O)[O-])c4)c(Oc4cnc5[nH]ccc5c4)c3)CC2)[C@H]1c1ccc(Cl)cc1` [Compound 72, 4-[4-[[(2S,3R)-2-(4-chlorophenyl)-1-methyl-6-oxo-3-piperidyl]methyl]piperazin-1-yl]-N-[3-nitro-4-(tetrahydropyran-4-ylmethylamino)phenyl]sulfonyl-2-(1H-pyrrolo[2,3-b]pyridin-5-yloxy)benzamide], the results for the CC50 in data set [1] and in data set [6] were > 10 µM and > 0.2 µM, respectively. For the same molecule, the CC50 at 3 days in data set [2] was > 25 µM. The half-inhibitory concentration (IC50) in data set [3] was ≤ 2 µM; in data set [4] it was > 0.05 µM. The EC50 in data set [5] is > 0.25 µM.
Consider `CC1=C(C)C[C@H](c2ccc(Cl)cc2)[C@@H](CN2CCN(c3ccc(C(=O)NS(=O)(=O)c4ccc(NCC5CCOCC5)c([N+](=O)[O-])c4)c(Oc4cnc5[nH]ccc5c4)c3)CC2)C1` [Compound 75, 4-[4-[[(1S,6S)-6-(4-chlorophenyl)-3,4-dimethyl-cyclohex-3-en-1-yl]methyl]piperazin-1-yl]-N-[3-nitro-4-(tetrahydropyran-4-ylmethylamino)phenyl]sulfonyl-2-(1H-pyrrolo[2,3-b]pyridin-5-yloxy)benzamide], for which the CC50 is 2 to 10 µM in data set [1] and > 0.2 µM in data set [6]. Moreover, the CC50 at 3 days in data set [2] was > 25 µM. Besides, the values for the half-inhibitory concentration (IC50) in data set [3] and in data set [4] were ≤ 2 µM and > 0.05 µM, respectively. Also, in data set [5], the EC50 was > 0.25 µM.
As for `O=C(NS(=O)(=O)c1ccc(NCC2CCOCC2)c([N+](=O)[O-])c1)c1ccc(N2CCN(C[C@@H]3Cc4ccccc4CN3C(=O)C3CCNC3)CC2)cc1Oc1cnc2[nH]ccc2c1` (stereo partly drawn) [Compound 78, N-[3-nitro-4-(tetrahydropyran-4-ylmethylamino)phenyl]sulfonyl-4-[4-[[(3S)-2-(pyrrolidine-3-carbonyl)-3,4-dihydro-1H-isoquinolin-3-yl]methyl]piperazin-1-yl]-2-(1H-pyrrolo[2,3-b]pyridin-5-yloxy)benzamide], the CC50 in data set [1] is > 10 µM; in data set [6] it was > 0.2 µM. Besides, the CC50 at 3 days in data set [2] is > 25 µM. Also, the IC50 in data set [3] lay within 2 to 4 µM; in data set [4] it was 0.005 to 0.01 µM. In addition, the EC50 in data set [5] is > 0.25 µM.
In the case of `O=C(NS(=O)(=O)c1ccc(NC2CCS(=O)(=O)CC2)c([N+](=O)[O-])c1)c1ccc(N2CCC(CN3CCCCC3c3ccc(Cl)cc3)CC2)cc1Oc1cnc2[nH]ccc2c1` (stereo not drawn) [Compound 79, 4-[4-[[2-(4-chlorophenyl)-1-piperidyl]methyl]-1-piperidyl]-N-[4-[(1,1-dioxothian-4-yl)amino]-3-nitro-phenyl]sulfonyl-2-(1H-pyrrolo[2,3-b]pyridin-5-yloxy)benzamide], the CC50 in data set [1] was 2 to 10 µM; in data set [6], > 0.2 µM. For the same molecule, the CC50 at 3 days in data set [2] was > 25 µM. In addition, the IC50 in data set [3] was > 4 µM; in data set [4], > 0.05 µM. Moreover, the EC50 in data set [5] was > 0.25 µM.
